We go through five compounds from paper PMC3839997, “Identification of Glucose Transporters in Aspergillus nidulans” (PLoS ONE, 2013).

Assay [1] deals with T1, HxtC (Aspergillus nidulans, UniProt C8VDD8).
T1 construct: gene ANIA_10891; full-length ORF from cDNA, untagged (with stop codon), expressed from pRH195 in S. cerevisiae EBY.VW4000; strain A4 given for the GFP construct
As to the kind of experiment: competition of […]glucose uptake in S. cerevisiae EBY.VW4000 expressing the transporter. It is filed as cell-based. Particulars: tenfold excess of unlabelled sugar over [14C]glucose.

For assay [2], the target named is T1, HxtC. As to the kind of experiment: […]glucose uptake in S. cerevisiae EBY.VW4000 expressing the transporter. It is filed as cell-based. Particulars: labelled compound; 30 °C; proton symport.

T1 sequence (C8VDD8 entry or part of it): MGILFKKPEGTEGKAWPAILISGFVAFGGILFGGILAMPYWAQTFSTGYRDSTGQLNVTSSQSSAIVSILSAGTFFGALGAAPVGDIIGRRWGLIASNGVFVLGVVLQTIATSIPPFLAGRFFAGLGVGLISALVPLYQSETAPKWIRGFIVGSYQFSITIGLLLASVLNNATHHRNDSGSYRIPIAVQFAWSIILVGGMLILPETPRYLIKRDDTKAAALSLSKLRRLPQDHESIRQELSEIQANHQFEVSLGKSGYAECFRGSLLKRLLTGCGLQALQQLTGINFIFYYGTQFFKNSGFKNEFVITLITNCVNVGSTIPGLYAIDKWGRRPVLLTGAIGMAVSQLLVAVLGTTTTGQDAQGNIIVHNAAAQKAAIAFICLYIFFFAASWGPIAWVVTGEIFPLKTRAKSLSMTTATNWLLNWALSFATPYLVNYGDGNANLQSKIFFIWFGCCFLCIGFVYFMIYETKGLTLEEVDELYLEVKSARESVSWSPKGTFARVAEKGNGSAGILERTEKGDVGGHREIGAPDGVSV

Regarding `OCC1(O)OC[C@@H](O)[C@@H](O)[C@@H]1O` (some centres unmarked) [fructose], at HxtC [1], the “% inhibition” value is “unlabeled maltose, galactose, fructose and mannose were also able to inhibit to different levels”.

Take `OC[C@H]1OC(O)[C@H](O)[C@@H](O)[C@H]1O` (some centres unmarked) [galactose]: the “% inhibition” value at HxtC [1] was “unlabeled maltose, galactose, fructose and mannose were also able to inhibit to different levels”.

Regarding `OC[C@H]1OC(O)[C@H](O)[C@@H](O)[C@@H]1O` (some centres unmarked) [glucose], the “[14C]glucose uptake in S. cerevisiae EBY.VW4000 expressing the transporter” value at HxtC [2] was “these data suggested that HxtB, HxtC, and HxtE mediated glucose transport via active proton symport”.

Consider `OC[C@H]1O[C@H](O[C@H]2[C@H](O)[C@@H](O)C(O)O[C@@H]2CO)[C@H](O)[C@@H](O)[C@@H]1O` (some centres unmarked) [maltose], for which the “% inhibition” value on HxtC [1] was “unlabeled maltose, galactose, fructose and mannose were also able to inhibit to different levels”.

Consider `OC[C@H]1OC(O)[C@@H](O)[C@@H](O)[C@@H]1O` (some centres unmarked) [mannose], for which the “% inhibition” value on HxtC [1] is “unlabeled maltose, galactose, fructose and mannose were also able to inhibit to different levels”.
